Assay results published in publication PMC11003488 (Journal of Enzyme Inhibition and Medicinal Chemistry, 2023).
Read-outs that look alike come from different tables or passages of the source.

Key:
[1] = test system: IGROV1; test: NCI-60 SRB growth inhibition, one-dose and five-dose; format: cell-based; settings: Homo sapiens; for GI50: IGROV-1; for inhibition at 10 µM: IGROV-1, read-out: percent growth inhibition
[2] = test system: HL-60(TB); test: cells; format: cell-based; settings: Homo sapiens; for GI50: HL-60; for inhibition at 10 µM: HL-60, read-out: percent growth inhibition
[3] = test system: SF-539; test: NCI-60 SRB growth inhibition, one-dose and five-dose; format: cell-based; settings: Homo sapiens; for GI50: SF-539; for inhibition at 10 µM: SF-539, read-out: percent growth inhibition
[4] = test system: KM12; test: as above; format: cell-based; settings: Homo sapiens; for GI50: KM12; for inhibition at 10 µM: KM12, read-out: percent growth inhibition
[5] = test system: WI-38 normal human fibroblast cells; test: Cytotoxicity towards normal fibroblasts, safety index; format: cell-based; settings: WI-38 versus cancer cell lines
[6] = as above; format: cell-based, human; settings: human, WI-38 normal fibroblast cells
[7] = test system: Ovarian cancer cell lines; test: NCI-60 SRB growth inhibition, subpanel; format: cell-based, human; settings: for GI50: Homo sapiens
[8] = test system: SN12C; test: NCI-60 SRB growth inhibition, one-dose and five-dose; format: cell-based; settings: Homo sapiens; for inhibition at 10 µM: read-out: percent growth inhibition
[9] = test system: Leukaemia cell lines; test: NCI-60 SRB growth inhibition, subpanel; format: cell-based, human; settings: for GI50: Homo sapiens
[10] = test system: HS 578 T; test: NCI-60 SRB growth inhibition, one-dose and five-dose; format: cell-based; settings: Homo sapiens; for inhibition at 10 µM: read-out: percent growth inhibition
[11] = test system: HCC-2998; test: as above; format: cell-based; settings: Homo sapiens; for GI50: HCC 2998; for inhibition at 10 µM: HCC 2998, read-out: percent growth inhibition
[12] = test system: Breast cancer cell lines; test: NCI-60 SRB growth inhibition, subpanel; format: cell-based, human; settings: for GI50: Homo sapiens
[13] = test system: PC-3; test: NCI-60 SRB growth inhibition, one-dose and five-dose; format: cell-based; settings: Homo sapiens; for GI50: PC-3; for inhibition at 10 µM: PC-3, read-out: percent growth inhibition
[14] = test system: TK-10; test: as above; format: cell-based; settings: Homo sapiens; for GI50: TK-10; for inhibition at 10 µM: TK-10, read-out: percent growth inhibition
[15] = test system: Renal cancer cell lines; test: NCI-60 SRB growth inhibition, subpanel; format: cell-based, human; settings: for GI50: Homo sapiens
[16] = test system: NSCLC cell lines; test: NCI-60 SRB growth inhibition, subpanel; format: cell-based, human; settings: for GI50: Homo sapiens
[17] = test system: UACC-62; test: NCI-60 SRB growth inhibition, one-dose and five-dose; format: cell-based; settings: Homo sapiens; for GI50: UACC-62; for inhibition at 10 µM: UACC-62, read-out: percent growth inhibition
[18] = test system: RPMI-8226; test: as above; format: cell-based; settings: Homo sapiens; for GI50: RPMI-8226; for inhibition at 10 µM: RPMI-8226, read-out: percent growth inhibition
[19] = test system: Melanoma cell lines; test: NCI-60 SRB growth inhibition, subpanel; format: cell-based, human; settings: for GI50: Homo sapiens
[20] = test system: Prostate cancer cell lines; test: NCI-60 SRB growth inhibition, subpanel; format: cell-based, human; settings: for GI50: Homo sapiens
[21] = test system: MDA-MB-435; test: NCI-60 SRB growth inhibition, one-dose and five-dose; format: cell-based; settings: Homo sapiens; for GI50: MDA-MB-435; for inhibition at 10 µM: MDA-MB-435, read-out: percent growth inhibition
[22] = target: Human VEGFR-2 (Homo sapiens, UniProt P35968); test: VEGFR-2 inhibition assay; format: biochemical
Chain of Human VEGFR-2 (P35968 20-1356): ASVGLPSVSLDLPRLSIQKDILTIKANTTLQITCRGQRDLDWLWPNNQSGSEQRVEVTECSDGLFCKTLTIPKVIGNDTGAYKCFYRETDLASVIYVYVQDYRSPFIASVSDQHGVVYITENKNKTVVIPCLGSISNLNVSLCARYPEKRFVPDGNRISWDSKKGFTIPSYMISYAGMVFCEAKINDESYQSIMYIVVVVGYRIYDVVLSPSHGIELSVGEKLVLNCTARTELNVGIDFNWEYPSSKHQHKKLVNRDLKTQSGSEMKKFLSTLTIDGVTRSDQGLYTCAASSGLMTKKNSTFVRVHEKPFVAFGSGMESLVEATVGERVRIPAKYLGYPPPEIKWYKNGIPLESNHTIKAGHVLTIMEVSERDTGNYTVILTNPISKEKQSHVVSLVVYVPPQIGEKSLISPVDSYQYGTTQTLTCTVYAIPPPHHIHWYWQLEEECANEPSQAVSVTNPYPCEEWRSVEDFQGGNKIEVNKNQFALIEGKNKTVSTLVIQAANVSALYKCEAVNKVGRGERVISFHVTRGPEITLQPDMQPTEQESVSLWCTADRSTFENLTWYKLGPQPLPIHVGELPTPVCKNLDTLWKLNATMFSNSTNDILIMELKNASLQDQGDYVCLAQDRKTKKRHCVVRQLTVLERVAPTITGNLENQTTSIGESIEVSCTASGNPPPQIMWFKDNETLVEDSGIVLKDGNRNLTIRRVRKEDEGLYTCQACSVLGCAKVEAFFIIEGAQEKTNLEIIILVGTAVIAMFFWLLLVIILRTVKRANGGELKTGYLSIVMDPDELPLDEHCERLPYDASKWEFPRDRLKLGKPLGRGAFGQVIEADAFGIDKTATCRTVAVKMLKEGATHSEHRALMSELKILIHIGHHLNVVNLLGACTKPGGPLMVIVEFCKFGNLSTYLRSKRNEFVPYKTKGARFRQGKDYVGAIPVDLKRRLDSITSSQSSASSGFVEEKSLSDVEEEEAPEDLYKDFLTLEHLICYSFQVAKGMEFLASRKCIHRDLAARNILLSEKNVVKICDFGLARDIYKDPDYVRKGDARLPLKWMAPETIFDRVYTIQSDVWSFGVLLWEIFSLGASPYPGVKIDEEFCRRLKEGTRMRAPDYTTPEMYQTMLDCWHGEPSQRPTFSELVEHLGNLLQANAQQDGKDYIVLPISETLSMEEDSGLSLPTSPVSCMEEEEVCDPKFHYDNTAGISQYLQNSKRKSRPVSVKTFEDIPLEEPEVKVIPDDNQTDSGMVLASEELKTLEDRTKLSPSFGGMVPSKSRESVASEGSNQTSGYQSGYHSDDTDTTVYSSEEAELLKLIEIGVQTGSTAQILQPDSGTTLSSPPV

[23] = test system: MDA-MB-231/ATCC; test: NCI-60 SRB growth inhibition, one-dose and five-dose; format: cell-based; settings: Homo sapiens; for GI50: MDA-MB-231
[24] = test system: HCT-116; test: as above; format: cell-based; settings: Homo sapiens; for GI50: HCT-116, HCT-116, five-dose screening; for inhibition at 10 µM: HCT-116, read-out: percent growth inhibition
[25] = test system: NCI-H226; test: as above; format: cell-based; settings: Homo sapiens; for GI50: NCI-H226; for inhibition at 10 µM: NCI-H226, read-out: percent growth inhibition
[26] = test system: ACHN; test: as above; format: cell-based; settings: Homo sapiens; for inhibition at 10 µM: read-out: percent growth inhibition
[27] = test system: OVCAR-8; test: as above; format: cell-based; settings: Homo sapiens; for inhibition at 10 µM: OVCAR-8, read-out: percent growth inhibition
[28] = test system: UO-31; test: as above; format: cell-based; settings: Homo sapiens; for GI50: UO-31
[29] = test system: CNS cancer cell lines; test: NCI-60 SRB growth inhibition, subpanel; format: cell-based, human; settings: for GI50: Homo sapiens
[30] = test system: Colon cancer cell lines; test: NCI-60 SRB growth inhibition, subpanel; format: cell-based, human; settings: for GI50: Homo sapiens
[31] = test system: HOP-62; test: NCI-60 SRB growth inhibition, one-dose and five-dose; format: cell-based; settings: Homo sapiens; for GI50: HOP-62; for inhibition at 10 µM: HOP-62, read-out: percent growth inhibition

## Cc1ccc(CNc2cccc(C(=O)/C=C/c3cccnc3)c2)cc1 [Compound 5a, (E)-1–(3-((4-methylbenzyl)amino)phenyl)-3-(pyridin-3-yl)prop-2-en-1-one]
[1]
  GI50: 13.6 µM
  inhibition at 10 µM: 44.5%
[2]
  GI50: 6.25 µM
  inhibition at 10 µM: 54.6%
[3]
  GI50: 15.6 µM
  inhibition at 10 µM: 152%
[4]
  GI50: 8.36 µM
  inhibition at 10 µM: 155%
[5]
  Safety index: >1
[6]
  GI50 at 48 h: > 100 µM
[7]; read-out: GI50 MG-MID
  GI50: 11.4 µM
[8]
  GI50: 12.6 µM
  inhibition at 10 µM: 118%
[9]; read-out: GI50 MG-MID
  GI50: 3.34 µM
[10]
  GI50: 14.6 µM
  inhibition at 10 µM: 69.2%
[11]
  GI50: 14.1 µM
  inhibition at 10 µM: 52.8%
[12]; read-out: GI50 MG-MID
  GI50: 9.21 µM
[13]
  GI50: 14.2 µM
  inhibition at 10 µM: 84.8%
[14]
  GI50: 14.4 µM
  inhibition at 10 µM: 18.9%
[15]; read-out: GI50 MG-MID
  GI50: 13.3 µM
[16]; read-out: GI50 MG-MID
  GI50: 13.7 µM
[17]
  GI50: 11.1 µM
  inhibition at 10 µM: 58.4%
[18]
  GI50: 1.76 µM
  inhibition at 10 µM: 98.6%
[19]; read-out: GI50 MG-MID
  GI50: 10.6 µM
[20]; read-out: GI50 MG-MID
  GI50: 13.8 µM
[21]
  GI50: 3.04 µM
  inhibition at 10 µM: 92%
[22]
  IC50: 2 ± 0.023 µM
[23]
  GI50: 11.3 µM
[23]; MDA-MB-231, read-out: percent growth inhibition
  inhibition at 10 µM: 110%
[24]
  GI50: 2.07 µM
  inhibition at 10 µM: 189%
[25]
  GI50: 11.9 µM
  inhibition at 10 µM: 37.9%
[26]
  GI50: 14 µM
  inhibition at 10 µM: 130%
[27]; OVCAR-8
  GI50: 13.1 µM
[27]
  inhibition at 10 µM: 88.3%
[28]
  GI50: 11.7 µM
[28]; UO-31, read-out: percent growth inhibition
  inhibition at 10 µM: 47.5%
[29]; read-out: GI50 MG-MID
  GI50: 13.2 µM
[30]; read-out: GI50 MG-MID
  GI50: 8.84 µM
[31]
  GI50: 15.6 µM
  inhibition at 10 µM: 15.1%

## CC(=O)Nc1ccc(CNc2cccc(C(=O)/C=C/c3cccnc3)c2)cc1 [Compound 5b, (E)-N-(4-(((3–(3-(pyridin-3-yl)acryloyl)phenyl)amino)methyl)phenyl)acetamide]
[1]
  GI50: 2.3 µM
  inhibition at 10 µM: 123%
[2]
  GI50: 2.78 µM
  inhibition at 10 µM: 144%
[3]
  GI50: 6.35 µM
  inhibition at 10 µM: 170%
[4]
  GI50: 2.25 µM
  inhibition at 10 µM: 162%
[5]
  Safety index: >1
[6]
  GI50 at 48 h: > 100 µM
[7]; read-out: GI50 MG-MID
  GI50: 5.71 µM
[7]; read-out: MG-MID GI50
  GI50: 5.71 µM
[7]; full panel MG-MID / Ovarian Cancer subpanel MG-MID
  SI (Selectivity Index): 0.81
[8]
  GI50: 2.01 µM
  inhibition at 10 µM: 124%
[9]; read-out: GI50 MG-MID
  GI50: 2.49 µM
[9]; read-out: MG-MID GI50
  GI50: 2.49 µM
[9]; full panel MG-MID / leukaemia subpanel MG-MID
  SI (Selectivity Index): 1.87
[10]
  GI50: 2.57 µM
  inhibition at 10 µM: 88.3%
[11]
  GI50: 1.82 µM
  inhibition at 10 µM: 195%
[12]; read-out: GI50 MG-MID
  GI50: 2.45 µM
[12]; read-out: MG-MID GI50
  GI50: 2.45 µM
[12]; full panel MG-MID / Breast Cancer subpanel MG-MID
  SI (Selectivity Index): 1.90
[13]
  GI50: 3.05 µM
  inhibition at 10 µM: 98.8%
[14]
  GI50: 2.53 µM
  inhibition at 10 µM: 85.3%
[15]; read-out: GI50 MG-MID
  GI50: 5.2 µM
[15]; read-out: MG-MID GI50
  GI50: 5.2 µM
[15]; full panel MG-MID / Renal Cancer subpanel MG-MID
  SI (Selectivity Index): 0.89
[16]; read-out: GI50 MG-MID
  GI50: 7.24 µM
[16]; read-out: MG-MID GI50
  GI50: 7.24 µM
[16]; full panel MG-MID / NSCLC subpanel MG-MID
  SI (Selectivity Index): 0.64
[17]
  GI50: 5.03 µM
  inhibition at 10 µM: 162%
[18]
  GI50: 1.92 µM
  inhibition at 10 µM: 125%
[19]; read-out: GI50 MG-MID
  GI50: 3.99 µM
[19]; read-out: MG-MID GI50
  GI50: 3.99 µM
[19]; full panel MG-MID / Melanoma subpanel MG-MID
  SI (Selectivity Index): 1.12
[20]; read-out: GI50 MG-MID
  GI50: 4.1 µM
[20]; read-out: MG-MID GI50
  GI50: 4.1 µM
[20]; full panel MG-MID / Prostatic Cancer subpanel MG-MID
  SI (Selectivity Index): 1.13
[21]
  GI50: 2.28 µM
  inhibition at 10 µM: 124%
[22]
  IC50: 1.77 ± 0.021 µM
[23]
  GI50: 2.16 µM
[24]
  GI50: 1.8 µM
  inhibition at 10 µM: 196%
[25]
  GI50: 2.76 µM
  inhibition at 10 µM: 116%
[26]
  GI50: 1.9 µM
  inhibition at 10 µM: 165%
[27]
  inhibition at 10 µM: 97.1%
[28]
  GI50: 3.04 µM
[29]; read-out: GI50 MG-MID
  GI50: 7.46 µM
[29]; read-out: MG-MID GI50
  GI50: 7.46 µM
[29]; full panel MG-MID / CNS Cancer subpanel MG-MID
  SI (Selectivity Index): 0.62
[30]; read-out: GI50 MG-MID
  GI50: 3.26 µM
[30]; read-out: MG-MID GI50
  GI50: 3.26 µM
[30]; full panel MG-MID / Colon Cancer subpanel MG-MID
  SI (Selectivity Index): 1.43
[31]
  GI50: 12.7 µM
  inhibition at 10 µM: 74%

## CC(=O)Nc1ccc(/C=C/C(=O)c2cccc(NCc3ccc4oc(=O)ccc4c3)c2)cc1 [Compound 5k, (E)-N-(4–(3-oxo-3–(3-(((2-oxo-2H-chromen-6-yl)methyl)amino)phenyl)prop-1-en-1-yl)phenyl)acetamide]
[1]
  inhibition at 10 µM: 23.3%
[2]
  inhibition at 10 µM: 59%
[3]
  inhibition at 10 µM: 19%
[4]
  inhibition at 10 µM: 34.4%
[8]
  inhibition at 10 µM: 29.5%
[10]
  inhibition at 10 µM: 22.1%
[11]
  inhibition at 10 µM: 10%
[13]
  inhibition at 10 µM: 27.6%
[14]
  inhibition at 10 µM: 25.8%
[17]
  inhibition at 10 µM: 67.5%
[18]
  inhibition at 10 µM: 80.5%
[21]
  inhibition at 10 µM: 22.1%
[24]
  inhibition at 10 µM: 78.8%
[25]
  inhibition at 10 µM: 35.7%
[26]
  inhibition at 10 µM: 34.7%
[27]
  inhibition at 10 µM: 34.9%
[31]
  inhibition at 10 µM: 10.8%
